Data taken from article PMC4569013, “Massive Bioaccumulation and Self‐Assembly of Phenazine Compounds in Live Cells” (Advanced Science, 2015).

Legend:
MDCK epithelial cells = test: Linear diattenuation anisotropy microscopy (LC-PolScope) of intracellular inclusions; assay type: cell-based, Canine; conditions: 72 h, compared with clofazimine
Procedure: (§1) The optical design was built on a Nikon Eclipse Ti microscope equipped with the liquid crystal universal compensator consisting of a linear polarizer and a pair of liquid crystal devices. The LC compensator was part of the transillumination path and was used to illuminate the specimen with monochromatic, linearly polarized light of varying polarization orientation. There was no polarization analyzer present in the imaging path. Quantitative intensity images were recorded by a charge‐coupled device camera and a desktop computer calculated the average transmittance, the differential transmittance and the polarization orientation leading to maximum transmittance for each optically resolved picture element (pixel). Acquisition and processing steps were controlled using OpenPolScope plugins for the open source imaging programs ImageJ and Micro‐Manager (MMStudio version 1.4.15). With the combination of hardware and software, polarized light images were acquired at high sensitivity and high spatial resolution for measuring linear diattenuation.
(§2) Linear Diattenuation Microscopy Data Acquisition and Analysis: After RAW264.7 macrophages or MDCK epithelial cells were incubated with the compound in the chambered cover glasses for 72 h, at the same time of performing transmitted microscopic examination, cell specimens were examined under linear diattenuation microscopy using the Nikon Eclipse Ti microscope with 40×/0.75 NA objective and monochromatic light of two different center wavelengths, 546 and 623 nm (passband 30 nm). In the OpenPolScope software, Pol‐Acquisition and Pol‐Analyzer plugins (version 2.0) were used to capture, process, and analyze the attenuation images. Before imaging the samples, the setup was calibrated using a specially prepared slide featuring four small pieces of linear polarization filters. The transmission axes of the filters were oriented in steps of 45° providing a means to calibrate the LC universal compensator settings. After the calibration, a sample slide was inserted and first a sequence of polarized light images of a clear, fully transmitting sample area was recorded, followed by an image sequence featuring the cells under investigation. The images of the clear area were used to determine instrument factors which were needed for computing the average and the polarization dependent loss in transmittance in cellular components visible in the second image.10
(§3) Linear diattenuation is a material property that can occur in materials such as crystals, in which the light absorbing molecules are arranged with a preferred orientation. The molecular alignment creates principal axes in the material denoting polarization directions for which light is maximally and minimally transmitted. Diattenuation is the difference between maximal (T max) and minimal (T min) transmittance, divided by their sum (Equation (1)): (1) Diattenuation=Tmax‐Tmin/Tmax+Tmin
(§4) To simultaneously measure the attenuation of many crystals with arbitrary orientations, we developed algorithms based on four specimen images, each recorded using light of a different polarization orientation: 0°, 45°, 90°, and 135°.10 The four raw images were used to calculate the average and differential transmittance and the orientation of maximum transmittance in every resolved image pixel. To isolate and analyze quantitative data of the objects (crystals), the anisotropy or maximum transmittance axis orientation image file opened in ImageJ was inverted (Ctrl + Shift + I) and thresholded using ImageJ's default automatic method (“Binary” → “Convert to Mask”). By using the ImageJ's algorithm, “Analyze Particles,” data of anisotropy or maximum transmittance axis orientation of objects in images could be obtained automatically. Diattenuation ratios were calculated by dividing anisotropy at 623 nm by that at 546 nm.

RAW264.7 macrophages [1] = test: Cell associated mass measurements (bioaccumulation, pmole/cell); assay type: cell-based; conditions: 72 h incubation, normalized by number of cells
Procedure: Cell Associated Mass Measurements: […] After an overnight incubation (37 °C, 5% CO2), cells were incubated with 100 μL of the media (DMEM with 5% FBS) containing 5 × 10^−6 M clofazmine or its chemical derivatives (2.5 × 10^−6 M of Compound “I”). Media containing each compound was replaced every day during the 72 h incubation. After the incubation, media was removed and cells were washed with Hank's balanced salt solution (HBSS) buffer (No. 14025; Invitrogen) twice. RAW264.7 macrophage cells in buffer were scraped and MDCK epithelial cells were exposed to Trypsin‐EDTA solution for detachment from the plates for cell number counting and quantification of cell‐associated masses. After centrifugation (650 × g), supernatant was removed and cell pellets were resuspended in 0.1 M citric acid/0.1 M trisodium citrate buffer (pH 5) for cell counting as previously reported.7 Equal numbers of cells in 100 μL in buffer were transferred to 96 well plates and 100 μL of detergent (ATCC, 30‐1010K) was added into wells for cell lysis. Chemical absorbance from each well was measured by the UV–vis microplate reader (Synergy 2, BioTek Instruments, Winooski, VT) at 490 nm wavelength and cell‐associated mass of each compound was calculated by a standard curve generated separately using the same media and presented as pmole/cell by normalizing the amount of chemical in each cell population sample by the number of cells in each sample.

RAW264.7 macrophages [2] = test: Linear diattenuation anisotropy microscopy (LC-PolScope) of intracellular inclusions; assay type: cell-based; conditions: 72 h, compared with clofazimine
Procedure: as §1, §2, §3, §4

RAW264.7 macrophages [3] = test: Cell accumulation experiment, transmitted light microscopy of cellular staining pattern; assay type: cell-based; conditions: for Inferred uptake: inferred from staining pattern after 72 hour incubation; for Observed cellular staining pattern (Notes): live cells, 72 hour incubation, 5 × 10^−6 M (2.5 × 10^−6 M for I); for Cellular staining relative to clofazimine: live macrophages, 72 h; for Staining in fixed cells: methanol-fixed cells incubated 72 h with compound (control)
Procedure: Cell Accumulation Experiments and Transmitted Light Microscopic Examination: […] After a 24 h incubation (37 °C, 5% CO2), cells were incubated with solution of clofazmine or its chemical derivatives (300 μL of 5 × 10^−6 m concentration; measured cell viability ranging from 85% to 97% for all compounds tested at this concentration; Figure 1) in DMEM (no phenol red; plus 1 × 10^−3 M sodium pyruvate and 5% FBS). For Compound “I,” 2.5 × 10^−6 M of compound solution in media was used for the RAW 264.7 macrophages incubation because of lower cell viability at higher concentrations (IC50 = (3.95 ± 0.11) × 10^−6 M). A solution of clofazmine or other chemical derivatives was made by a diluting stock solutions (2.5 × 10^−3 M in DMSO; 10 × 10^−3 M stock in DMSO were stored at −80 °C for further use) into DMEM with 5% FBS. […] The extracellular concentration of each compound in each well was maintained by daily replacement of the compound‐containing media. After 72 h of incubation with clofazmine or its derivatives, compound‐containing media were removed and cells were washed twice with media. Live cells in the chambered glasses were examined under inverted transmitted light microscopy (Nikon Eclipse Ti microscope) with a 40× objective and color camera. As a control experiment, fixed cells were also microscopically examined after incubation with the compounds. Cells were seeded on the chambered cover glasses at the density of 1.5 × 10^4 cells cm^−2 (RAW264.7 macrophages) or 2.5 × 10^4 cells cm^−2 (MDCK epithelial cells). After an overnight incubation (37 °C, 5% CO2), media was removed from the wells and cold methanol (−20 °C) was added to each well. After 30 s, remaining methanol was removed by washing with media with 5% FBS. Fixed cells were incubated (37 °C, 5% CO2) with clofazmine or derivatives (300 μL of 5 × 10^−6 M; 2.5 × 10^−6 M for I) in media with 5% FBS. After 72 h, fixed RAW264.7 or MDCK cells were washed with media and examined using the same transmitted microscopy conditions as the live cells.

Accumulation in macrophages (RAW264.7 macrophages [1]) | Inferred uptake (RAW264.7 macrophages [3]) | SMILES | Diattenuation anisotropy of intracellular inclusions (MDCK epithelial cells) | Diattenuation anisotropy of intracellular inclusions (RAW264.7 macrophages [2]) | Observed cellular staining pattern (Notes) (RAW264.7 macrophages [3]) | Cellular staining relative to clofazimine (RAW264.7 macrophages [3]) | Staining in fixed cells (RAW264.7 macrophages [3])
greatest accumulation | Excellent | Clc1ccc(Nc2cc3nc4ccccc4n(-c4ccc(Cl)cc4)c-3cc2=NCCc2ccccc2)cc1 [Compound P] | higher diattenuation anisotropy | higher diattenuation anisotropy | Large fibrous/crystal-like brown inclusions present in live cells | more prominent staining patterns | absent in fixed cells
greatest accumulation | Good | C[C@@H](CN=c1cc2n(-c3ccc(Cl)cc3)c3ccccc3nc-2cc1Nc1ccc(Cl)cc1)c1ccccc1 [Compound U] | only in macrophages | even higher anisotropy | Fibrous/crystal-like brown inclusions with orange perinuclear vesicles are present in live cells | prominent cellular staining | absent in fixed cells
